Data on one molecule can be found in US7427503B2, “Method for transferring material in a cell system” (Eppendorf AG, priority 2000, dated 2008).

Experiment [1] deals with Jurkat cells. Kind of experiment: Electroporation of Jurkat cells with and without trehalose in hypo-osmolar working medium. In kind it is cell-based, human. The following applies: 100 mOsm. The protocol:
Electroporation of Cells with and without Trehalose in a Hypo-osmolar Working Medium.
A phosphate buffer with 1.15 mM K2HPO4/KH2PO4 buffer, pH 7.2, was used as a pulse medium. KCl at a concentration of 10 mM (α=1.5−1.6 mS/cm) was added as a conducting salt. After this, trehalose at the respective concentration was added to the pulse medium. Osmolarity was adjusted to 100 mOsm by the addition of inositol, so as to obtain a hypo-osmolar solution.
Jurkat cells that are cells of a human T-lymphocytes line were used. 40 μg/ml propidium iodide, which is a membrane-impermeable DNA dye, was added as the material to be transferred.
Pulse application took place after 10 minutes of incubation prior to pulse application, in the pulse medium at room temperature (cell density: 2-3×10^6 cells/ml). Pulse duration was 20 μs.
Electroporation took place in an Eppendorf multiporator. After pulse application, the pores were left to reseal for 10 min at room temperature.
Electropermeabilisation took place at the following trehalose concentrations: 0 mM and 40 mM (α,α-trehalose).
Pulsing takes place at 4° C. or at room temperature. This can be single pulsing; however, multiple pulsing involving up to 3 pulses can at times be advantageous.

Experiment [2] concerns Jurkat cells. Kind of experiment: Electroporation of Jurkat cells with and without trehalose in iso-osmolar working medium. Conditions: 290 mOsm. In kind it is cell-based, human. The protocol: Electroporation of Cells with and without Trehalose in an Iso-osmolar Working Medium.
Essentially, the same experimental conditions as in Example 1 applied, except that the osmolarity of the pulse medium was adjusted to iso-osmolar conditions by adding inositol to 290 mOsm.
Again, α,α-trehalose was added in the following concentrations: 0 mM and 40 mM.

Regarding `OC[C@H]1O[C@H](O[C@H]2O[C@H](CO)[C@@H](O)[C@H](O)[C@H]2O)[C@H](O)[C@@H](O)[C@@H]1O` [trehalose, α,α-trehalose], the propidium iodide uptake result is given as “only slightly influenced” in experiment [1] (40 mM trehalose vs 0 mM, 40 μg/ml propidium iodide, FIG. 1) and “varies less markedly” in experiment [2] (40 mM trehalose vs 0 mM, FIG. 3). The “pulse efficiency (product of propidium iodide uptake and survival rate)” value in experiment [1] (40 mM trehalose vs control without trehalose, increasing field strength, FIG. 2) is reported as “significantly above the values of a control sample”. In addition, in experiment [2] (40 mM trehalose vs 0 mM, above all at high field strength, FIG. 3), the survival rate result is “untreated cells (0 mM, outline squares) is many times less than in the case of cells treated with 40 mM trehalose”. Further, the pulse efficiency result in experiment [2] (40 mM trehalose, increasing field strength, FIG. 4) is given as “gradual increase in the pulse efficiency”.
